This note sets out measurements from patent US20250268982A1, “COMPOSITIONS AND METHODS FOR TREATMENT AND/OR PROPHYLAXIS OF PROTEINOPATHIES” (REGAIN THERAPEUTICS SWEDEN AB, priority 2021, published 2025).

Data set [1] can be described thus: Thioflavin-T kinetics assay of aggregation propensity. The following applies: 500 μg/ml peptide in normal saline, 12-24 h; FIGS. 6A, 6B. Format: physicochemical. The method, then: THT method. ThT (Sigma-Aldrich) was prepared at 4 mM in MQ water. 50 μL of 500 μg/ml peptide (in normal saline) were incubated with 250 μL of 2.4 mM ThT solution (in water). ThT fluorescence was measured at 440 nm excitation and 480 nm emission in a black, clear-bottom 96-well plates (Corning, USA) at 10-15 min intervals (from bottom with periodic shaking) over 12-24 h on SpectraMax i3 microplate reader (Molecular Devices, USA). Curves were fitted using GraphPad Prism software.

The test system of data set [2] is 5XFAD mice. Nature of the data set: Nest building behavioural test in 5XFAD mice. The following applies: peptide i.v., FIGS. 4A-4C. Format: in vivo, mouse.
Method: Female wild type and 5xFAD transgenic mice (Jackson laboratories) were used for the mouse behavioural experiment. Mice were individually housed in controlled humidity, temperature and light conditions, and had ad libitum access to food and water. Randomization to treatment groups was carried out by using GraphPad QuickCalcs (GraphPad Software, San Diego, CA, USA), and all data analysis was performed blinded to the experimental groups. […] Every effort was made to minimize the harm and suffering of the animals. The mice were treated with the vehicle or peptide preparations once a week i.v. starting at the age of 1 month until 3 months of age. Behavioral testing: the 5xFAD mice have deficits in nest building test starting at 3 months of age. Briefly, the soft bedding material and plastic shelter tube are moved to the one end of the cage and soft tissue paper (17 cm×17 cm) is placed in the other end of the cage. After 24 hours, a picture of the cage is taken, and the points given according to the set scale. 0 points are given if tissue paper remains untouched, 5 points are given when animal incorporates tissue into nest.
The subject of data set [3] is 5XFAD mice. Nature of the data set: Plaque load by immunohistochemistry in brains of 5XFAD mice. Format: in vivo, mouse. As to conditions: 5XFAD mice treated for five weeks. The method, then:
Female wild type and 5xFAD transgenic mice (Jackson laboratories) were used for the mouse behavioural experiment. Mice were individually housed in controlled humidity, temperature and light conditions, and had ad libitum access to food and water. Randomization to treatment groups was carried out by using GraphPad QuickCalcs (GraphPad Software, San Diego, CA, USA), and all data analysis was performed blinded to the experimental groups. All the animal experiments followed the Council of Europe Legislation and Regulation for Animal Protection and are approved by the National Animal Experiment Board of Finland. Every effort was made to minimize the harm and suffering of the animals. […]
Immunohistochemistry: The brains were post-fixed in 4% paraformaldehyde (PFA, Sigma-Aldrich, St. Louis, MO, USA) for 20 hours, followed by cryoprotection in 30% sucrose for 48 hours. […] For quantification of the immunoreactivities, hippocampal areas were imaged using 4 or 10× magnification on an AX70 microscope (Olympus corporation, Tokyo, Japan) with an adjacent digital camera (Color View 12 or F-View, Soft imaging system, Muenster, Germany) running AnalySis software (Soft Imaging System). Quantification of the immunoreactivities was performed using ImagePro Plus software (Media Cybernetics Inc., Rockville, MD, USA) at a predefined range and presented as relative immunoreactive area. […]

In the next data set the test system is ERK1/2 phosphorylation. Nature of the data set: ERK1/2 phosphorylation ELISA in SH-SY5Y cells. It counts as cell-based. As to conditions: 30 pM peptide, 5 minutes, FIG. 16. The method, then:
Phosphorylation of ERK is important for cell proliferation, neurogenesis and synaptic plasticity, and is downstream of calcium influx through the α7 receptor. To obtain the data shown in FIG. 16, SH-SY5Y cells were treated with 30 pM peptide for 5 minutes, then lysed and ERK phosphorylation quantified via a commercial ELISA kit.

Regarding “SEQ ID NO:3: Aβ40: Aβ42 with deletion of residues 41 and 42 of the beta-sheet aggregation domain”, the “aggregation propensity (thioflavin-T fluorescence)” value (“aggregation propensity” for short) in data set [1] is listed as “lower aggregation propensity than wild type Aβ42”. Moreover, the figures for the “phenotype restoration / rescue (behaviour)” value in the data set on 5XFAD mice [2] and in the data set with 5XFAD mice [2] (listed as RT3) were “phenotype restoration” and “phenotype rescue”, respectively. Besides, the “plaque load in the cortex versus vehicle treated animals” value in the data set with 5XFAD mice [3] (FIG. 5A) is listed as “reduced plaque load in the cortex”. Further, the “plaque accumulation in the hippocampi versus vehicle treated animals” value in the data set with 5XFAD mice [3] (FIG. 5B) is reported as “decreased level of plaque accumulation in the hippocampi”.

Regarding “SEQ ID NO:88: Aβ42 analogue having a proline (P) substitution in place of methionine (M) at position 35 (M35P)”, the “aggregation propensity” value in data set [1] was “lower aggregation propensity than the peptide having SEQ ID NO:3”. In the data set with 5XFAD mice [2], the “phenotype restoration / rescue (behaviour)” value is reported as “phenotype rescue”. For the same substance, the “downstream ERK1/2 phosphorylation” value with ERK1/2 phosphorylation was “induces downstream ERK1/2 phosphorylation”.

For “SEQ ID NO: 190: Aβ42 analogue with N-methyl methionine substituted for the naturally occurring methionine at position 35”, the “aggregation propensity” value in data set [1] is “lower aggregation propensity than wild type Aβ42”. The “downstream ERK1/2 phosphorylation” value with ERK1/2 phosphorylation is on record as “induces downstream ERK1/2 phosphorylation”.

On to “SEQ ID NO: 192: Aβ42 analogue with pyrrolysine substituted for the naturally occurring methionine at position 35”, for which the “aggregation propensity” value in data set [1] was “lower aggregation propensity than wild type Aβ42”.
